Read-outs that look alike come from different tables or passages of the source.
Tests used:
Experiment in all cases: NCI 60 cell panel growth inhibition
Format in all cases: cell-based, human
435 = settings: BREAST, read-out: anti-tumour activity GI50
From the text: (§1) Examples 6 and 7 make use of the NCl 60 cell panel. This is an in vitro cell line screening project providing direct support to the National Cancer Institute's USA Developmental Therapeutic Programme for anti cancer discovery. The methodolgy for the cell line's operation is described by Boyd et al in Drug Development Research 1995, 34, 91-109.

A498 = settings: RENAL, read-out: anti-tumour activity GI50
From the text: as §1

A549/ATCC = settings: NSCLC, read-out: anti-tumour activity GI50
From the text: as §1

ACHN = settings: RENAL, read-out: anti-tumour activity GI50
From the text: as §1

BT-549 = settings: BREAST, read-out: anti-tumour activity GI50
From the text: as §1

CCRF-CEM = settings: Leukemia, read-out: anti-tumour activity GI50
From the text: as §1

COLO 205 = settings: COLON, read-out: anti-tumour activity GI50
From the text: as §1

DU-145 = settings: PROST, read-out: anti-tumour activity GI50
From the text: as §1

EKVX = settings: NSCLC, read-out: anti-tumour activity GI50
From the text: as §1

HCC2998 = settings: read-out: anti-tumour activity GI50
From the text: as §1

HL-60(TB) = settings: Leukemia, read-out: anti-tumour activity GI50
From the text: as §1

HOP-62 = settings: NSCLC, read-out: anti-tumour activity GI50
From the text: as §1

HOP-92 = settings: NSCLC, read-out: anti-tumour activity GI50
From the text: as §1

HS 578T = settings: BREAST, read-out: anti-tumour activity GI50
From the text: as §1

HT29 = settings: read-out: anti-tumour activity GI50
From the text: as §1

IGROV1 = settings: read-out: anti-tumour activity GI50
From the text: as §1

KM12 = settings: COLON, read-out: anti-tumour activity GI50
From the text: as §1

LOX IMVI = settings: MELAN, read-out: anti-tumour activity GI50
From the text: as §1

MALME-3M = settings: MELAN, read-out: anti-tumour activity GI50
From the text: as §1

MCF7 = settings: BREAST, read-out: anti-tumour activity GI50
From the text: as §1

MDA-MB-231/ATCC = settings: BREAST, read-out: anti-tumour activity GI50
From the text: as §1

MOLT-4 = settings: Leukemia, read-out: anti-tumour activity GI50
From the text: as §1

NCI-H322M = settings: NSCLC, read-out: anti-tumour activity GI50
From the text: as §1

NCI-H460 = settings: NSCLC, read-out: anti-tumour activity GI50
From the text: as §1

NCI-H522 = settings: NSCLC, read-out: anti-tumour activity GI50
From the text: as §1

NCI/ADRRES = settings: BREAST, read-out: anti-tumour activity GI50
From the text: as §1

OVCAR-3 = settings: OVAR, read-out: anti-tumour activity GI50
From the text: as §1

OVCAR-4 = settings: OVAR, read-out: anti-tumour activity GI50
From the text: as §1

OVCAR-8 = settings: OVAR, read-out: anti-tumour activity GI50
From the text: as §1

PC-3 = settings: PROST, read-out: anti-tumour activity GI50
From the text: as §1

RPMI-8226 = settings: Leukemia, read-out: anti-tumour activity GI50
From the text: as §1

RXF 393 = settings: RENAL, read-out: anti-tumour activity GI50
From the text: as §1

SF-268 = settings: CNS, read-out: anti-tumour activity GI50
From the text: as §1

SF-539 = settings: CNS, read-out: anti-tumour activity GI50
From the text: as §1

SK-MEL-28 = settings: MELAN, read-out: anti-tumour activity GI50
From the text: as §1

SK-MEL-2 = settings: MELAN, read-out: anti-tumour activity GI50
From the text: as §1

SK-MEL-5 = settings: MELAN, read-out: anti-tumour activity GI50
From the text: as §1

SKOV-3 = settings: read-out: anti-tumour activity GI50
From the text: as §1

SN12C = settings: RENAL, read-out: anti-tumour activity GI50
From the text: as §1

SNB-19 = settings: CNS, read-out: anti-tumour activity GI50
From the text: as §1

SR = settings: Leukemia, read-out: anti-tumour activity GI50
From the text: as §1

SW-620 = settings: COLON, read-out: anti-tumour activity GI50
From the text: as §1

T-47D = settings: BREAST, read-out: anti-tumour activity GI50
From the text: as §1

TK10 = settings: read-out: anti-tumour activity GI50
From the text: as §1

U251 = settings: read-out: anti-tumour activity GI50
From the text: as §1

UCC-62 = settings: MELAN, read-out: anti-tumour activity GI50
From the text: as §1

C=C(C)[C@H](OC(=O)c1cc(OC)cc2c(C)cccc12)C(=O)NCCN1CCCC(Cl)C1 (some centres unmarked) [Compound 21]
GI50 (435; Homo sapiens, 60 cell): 7.62 µM | GI50 (A498; Homo sapiens): 0.19 µM | GI50 (A549/ATCC; Homo sapiens): 8.26 µM | GI50 (ACHN; Homo sapiens): 1.78 µM | GI50 (BT-549; Homo sapiens): 4.55 µM | GI50 (CCRF-CEM; Homo sapiens): 3.24 µM | GI50 (COLO 205; Homo sapiens): 6.08 µM | GI50 (DU-145; Homo sapiens): 5.15 µM | GI50 (EKVX; Homo sapiens): 11.4 µM | GI50 (HCC2998; Homo sapiens, HCC 2998, COLON): 4.27 µM | GI50 (HL-60(TB); Homo sapiens): 12.1 µM | GI50 (HOP-62; Homo sapiens): 3.45 µM | GI50 (HOP-92; Homo sapiens): 4.12 µM | GI50 (HS 578T; Homo sapiens): 3.69 µM | GI50 (HT29; Homo sapiens, HT-29, COLON): 7.26 µM | GI50 (IGROV1; Homo sapiens, IGROV-1, OVAR): 4.21 µM | GI50 (KM12; Homo sapiens): 9.3 µM | GI50 (LOX IMVI; Homo sapiens): 2.84 µM | GI50 (MALME-3M; Homo sapiens): 7.51 µM | GI50 (MCF7; Homo sapiens): 4.62 µM | GI50 (MDA-MB-231/ATCC; Homo sapiens): 11 µM | GI50 (MOLT-4; Homo sapiens): 3.3 µM | GI50 (NCI-H322M; Homo sapiens): 8.07 µM | GI50 (NCI-H460; Homo sapiens): 6.26 µM | GI50 (NCI-H522; Homo sapiens): 5.1 µM | GI50 (NCI/ADRRES; Homo sapiens, NCI/ADR-RES): 12.8 µM | GI50 (OVCAR-3; Homo sapiens): 10.2 µM | GI50 (OVCAR-4; Homo sapiens): 20.9 µM | GI50 (OVCAR-8; Homo sapiens): 32.9 µM | GI50 (PC-3; Homo sapiens): 7.96 µM | GI50 (RPMI-8226; Homo sapiens): 3.43 µM | GI50 (RXF 393; Homo sapiens): 19.1 µM | GI50 (SF-268; Homo sapiens): 11.9 µM | GI50 (SF-539; Homo sapiens): 0.45 µM | GI50 (SK-MEL-28; Homo sapiens): 8.48 µM | GI50 (SK-MEL-2; Homo sapiens): 7.81 µM | GI50 (SK-MEL-5; Homo sapiens): 1.99 µM | GI50 (SKOV-3; Homo sapiens, SK-OV-3, OVAR): 17.2 µM | GI50 (SN12C; Homo sapiens): 3.76 µM | GI50 (SNB-19; Homo sapiens): 5.63 µM | GI50 (SR; Homo sapiens): 2.34 µM | GI50 (SW-620; Homo sapiens): 2.76 µM | GI50 (T-47D; Homo sapiens, T47D): 10.8 µM | GI50 (TK10; Homo sapiens, TK-10, RENAL): 12.1 µM | GI50 (U251; Homo sapiens, U-251, CNS): 2.63 µM | GI50 (UCC-62; Homo sapiens, 60 cell): 4.41 µM

COc1cc(C(=O)OC(C(=O)NCCN2CCCC(Cl)C2)C2(C)CO2)c2cccc(C)c2c1 (centres unmarked) [Compound 20]
GI50 435: 14.3 µM | GI50 (A498): 17.7 µM | GI50 (A549/ATCC): 31.1 µM | GI50 (ACHN): 1.17 µM | GI50 (BT-549): 12.5 µM | GI50 (CCRF-CEM): 3.26 µM | GI50 (COLO 205): 13.8 µM | GI50 (DU-145): 4.49 µM | GI50 (EKVX): 17.5 µM | GI50 (HCC2998; COLON): 8.25 µM | GI50 (HL-60(TB)): 6.98 µM | GI50 (HOP-62): 100 µM | GI50 (HOP-92): 13.8 µM | GI50 (HS 578T): 17.5 µM | GI50 (HT29; COLON): 11 µM | GI50 (IGROV1; OVAR): 12.1 µM | GI50 (KM12): 14.5 µM | GI50 (LOX IMVI): 3.62 µM | GI50 (MALME-3M): 14.8 µM | GI50 (MCF7): 14.7 µM | GI50 (MDA-MB-231/ATCC): 14 µM | GI50 (MOLT-4): 3 µM | GI50 (NCI-H322M): 17.9 µM | GI50 (NCI-H460): 13 µM | GI50 (NCI-H522): 7.77 µM | GI50 (NCI/ADRRES): 11.1 µM | GI50 (OVCAR-3): 18.6 µM | GI50 (OVCAR-4): 21.5 µM | GI50 (OVCAR-8): 44.5 µM | GI50 (PC-3): 11.2 µM | GI50 (RPMI-8226): 4.18 µM | GI50 (RXF 393): 17.5 µM | GI50 (SF-268): 16.6 µM | GI50 (SF-539): 6.27 µM | GI50 (SK-MEL-28): 11.6 µM | GI50 (SK-MEL-2): 18.6 µM | GI50 (SK-MEL-5): 1.56 µM | GI50 (SKOV-3; OVAR): 19.7 µM | GI50 (SN12C): 6.76 µM | GI50 (SNB-19): 14.3 µM | GI50 (SR): 2.02 µM | GI50 (SW-620): 5.26 µM | GI50 (T-47D): 23 µM | GI50 (TK10; RENAL): 23.4 µM | GI50 (U251; CNS): 7.82 µM | GI50 (UCC-62): 14.7 µM
